For data set [1] the following is noted: cited from earlier work.
The subject of data set [2] is rhesus PSMA. Nature of the data set: IFNγ ELISPOT from PBMCs, rhesus PSMA adenovirus vaccine with subcutaneous anti-CTLA-4 antibody. In kind it is in vivo, Indian rhesus macaques. As for the experimental part: Animal Treatment and Sample Collection. Five groups of male Indian rhesus macaques, seven (#1 to 7) per each test group, were immunized with an adenovirus encoding a rhesus PSMA modified polypeptide delivered by bilateral intramuscular injections (2× 5e10 V.P.). Immediately following the adenovirus injections, group 1 received vehicle, and groups 2 to 4 received bilateral subcutaneous injections of anti-CTLA-4 antibody (CP-675, 206) at doses 2× 25 mg, 2× 16.7 mg and 2× 8.4 mg respectively in proximity to the vaccine draining lymph node.
Nine days after the immunization, peripheral blood mononuclear cells (PBMCs) were isolated from each animal and were subjected to an IFNγ ELISPOT assay to measure the rhesus PSMA specific T cell responses. Briefly, 4e5 PBMCs from individual animals were plated per well with pools of rhesus PSMA specific peptides (P1, P2, P3 or R1+R2 defined in Table 24A) or nonspecific control peptides (human HER2 peptide pool) each at 2 ug/ml in IFN[…] ELISPOT plates. The plates were incubated for 16 hrs at 37° C. and 5% CO2 and washed and developed after incubation as per manufacturer's instruction. The number of IFNγ spot forming cells (SFC) was counted by CTL reader. Each condition was performed in duplicates. The average of the duplicates from the background adjusted SFC of the rhesus PSMA specific peptide pools was normalized to the response in 1e6 PBMCs.
IFNγ ELISPOT Assay Procedure. A capture antibody specific to IFNγ ([…]BD Bioscience, #51-2525kc) is coated onto a polyvinylidene fluoride (PVDF) membrane in a microplate overnight at 4° C. The plate is blocked with serum/protein to prevent nonspecific binding to the antibody. After blocking, effector cells (such as splenocytes isolated from immunized mice or PBMCs isolated from rhesus macaques) and targets (such as PSMA peptides from peptide library, target cells pulsed with antigen specific peptides or tumor cells expressing the relevant antigens) are added to the wells and incubated overnight at 37° C. in a 5% CO2 incubator. […]

For data set [3] the following is noted: cited from earlier work. The source holds these as a separate data set.
The subject of data set [4] is 293 cells. The data set can be described thus: Expression of PSMA constructs in mammalian 293 cells by FACS. The format is cell-based. The protocol: The expression of the PSMA cytosolic, secreted, and modified antigens was determined by FACS. Mammalian 293 cells were transfected with the PJV7563 PMED vectors encoding the various immunogenic PSMA polypeptides. Three days later, the 293 cells were stained with mouse anti-PSMA antibody, followed with a fluorescent conjugated (FITC) rat anti-mouse secondary antibody.
For orientation: Flow cytometry measures light scatter and fluorescence of single cells or particles in a stream.

Read-outs that look alike come from different tables or passages of the source.

In the case of 5′ TCGTCGTTTTGTCGTTTTGTCGTT3′ [CpG7909], in data set [1] (single dose subcutaneous), the dose limiting toxicity entry was “myalgia and constitutional effects”; the “maximum tolerated dose (MTD)” value is 0.45 mg/kg. In addition, the “dose well tolerated with no clinical effects and no significant toxicity” value in data set [1] (single intravenous dose) is listed as “up to 1.05 mg/kg”.
Turning to “CP-675,206: fully human IgG2 anti-CTLA-4 monoclonal antibody, CAS 745013-59-6”, the “vaccine induced immune response compared to vaccine alone” value in data set [2] (16.7 mg subcutaneous (group 4), P=0.05) was “significantly enhanced”; in data set [2] (33.4 mg subcutaneous (group 3), P=0.004) it was “significantly enhanced”; in data set [2] (dose of 50 mg subcutaneous (group 2), P=0.001 by Student's T-test), “significantly enhanced”.
Take “CP-870893: fully human agonistic CD40 monoclonal antibody, heavy and light chain SEQ ID NO: 40 and 41”: in data set [3] (human, in vivo, iv), the dose-limiting toxicities entry was “grade 3 CRS and grade 3 urticaria”. In addition, in data set [3] (phase I clinical study, intravenous infusion), the “maximum tolerated dose (MTD)” value was 0.2 mg/kg.
Consider “human PSMA modified antigen (SEQ ID NO: 9): immunogenic polypeptide of amino acids 15-750 of human PSMA, membrane-bound, expressed from DNA construct in PJV7563 vector”, for which the “Average mean fluorescent intensity” value in data set [4] (293 cells transfected with PJV7563 vector, stained three days later with mouse anti-PSMA antibody) is reported as 12270. Moreover, the “expression on the cell surface” value in data set [4] (transfected 293 cells, FACS) was “expressed on the cell surface”.

Source of the values: patent US11173196B2, “Vectors for expression of prostate-associated antigens” (Pfizer Inc., priority 2013, dated 2021).
